Marks after values point to notes of the source that are not given here.
Tests used:
[1] = test system: Enterococcus faecalis; experiment: MIC (IsoSensitest broth) and MBC (subculture onto Columbia blood agar), reference strains and clinical isolates; format: cell-based; conditions: dark, 24 hours
Protocol: (§1) The Minimum Inhibitory Concentrations (MIC's) for Compound 10, over a range of reference strains and clinical isolates, were determined using IsoSensitest® broth and Minimum Bactericidal concentrations (MBC's) determined by subculture onto Columbia blood agar.
(§2) • 1. A 5 mg/ml stock solution of Compound 10 was made up in water • 2. A series of dilutions were undertaken to produce a range of concentrations between 32-0.001 mg/L • 3. The test microorganisms were grown up overnight in IsoSensitest® broth • 4. The cultures were then diluted with fresh broth to a final concentration of 10^4 organisms/ml and placed on a shaker for 90 minutes at 37° C. • 5. 90 μl of the broth culture containing the microorganisms were transferred to each of 12 wells in a row in a microtitre tray and repeated in a control tray—four organisms per tray. • 6. 90 μL of the appropriate Compound 10 dilution was then added to each well containing organisms to give a final dilution series from 16 mg/L to 0.0005 mg/L • 7. The solutions were mixed well and incubated in the dark for 24 hours • 8. […] The MBC values were recorded after overnight incubation of the subcultures. • 10. Controls of uninoculated broth and broth plus inoculum were undertaken for each organism in each tray Results

[2] = test system: Enterococcus faecium; experiment: as above; format: cell-based; conditions: dark, 24 hours
Protocol: as §1, §2

[3] = test system: Staphylococcus aureus BAA-44 (multi-drug resistant MRSA); experiment: MIC and MBC of Compound 10 in the absence of light (NCCLS-based broth dilution); format: cell-based; conditions: S. aureus BAA-44, subculture on nutrient agar, further 24 hours
Text: The minimum inhibitory concentration (MIC) for an antimicrobial agent against a specific microorganism is defined as the minimum concentration of an antibacterial agent where no apparent visible growth of the organism is observed (FDA definition of Minimum Inhibitory Concentration). MIC's are typically determined using concentrations derived traditionally from serial twofold dilutions (National Committee for Clinical Laboratory Standards (NCCLS) Handbook M7-A5: “Methods for Dilution Antimicrobial Susceptibility Tests for Bacteria that Grow Aerobically; Approved Standard—5th Edition” Volume 20 Number 2. January 2000). The MIC for Compound 10 in the absence of light was investigated, using a protocol based on the MIC protocol produced by the NCCLS (National Committee for Clinical Laboratory Standards (NCCLS) Handbook M7-A5, supra).
Staphylococcus aureus BAA-44, a multi-drug resistant Methicillin Resistant Staphylococcus aureus (MRSA) strain obtained from the ATCC catalogue, was used in this study. The following concentrations of Compound 10 were investigated: 0.764; 0.382; 0.191; 0.0955; 0.0478; 0.0239, 0.0119, 0.00597, 0.00298, 0.00149, 0.00075 & 0.00037 μg/mL. Stock solutions were made up in distilled water and serial dilutions undertaken of this to produce the required concentrations immediately prior to use […]

[4] = test system: normal human dermal fibroblasts (NHDF); experiment: Toxicity against human skin cells, MTT-assay; format: cell-based; conditions: 5 min, 1 h, 4 h incubation, 0.01-10 μM, then 24 h in the dark
Protocol: NHDF were incubated with different concentrations of Compound 10 for 5 min, 1 h and 4 h (0 μM, 0.01 μM, 0.1 μM, 1.0 μM, 10 μM). Cells were then incubated for 24 h in the dark. Toxicity was tested by standard MTT-assay. Cell viability was normalised to one, which means, the values of control cells were normalised to one. Grey dotted line: 5 min incubation; black dotted: 1 h incubation; black line: 4 h incubation; (n=3, mean±SD).
(§3) Test compounds were screened for toxicity against cultured human skin cells using normal human epidermal keratinocytes (NHEK) and normal human dermal fibroblasts (NHDF), purchased from CellSystems Biotechnologie GmbH, Germany.
(§4) The NHEK and NHDF cells were used between passages 3 and 10. The cells were seeded with 7.5 and/or 15×10^4 cells/well (microtitre plate) and were allowed to attach overnight in an incubator (37° C., 5% CO2). After incubation with different concentrations of the selected photosensitisers for various times, the cells were incubated for 24 hours in the dark.
(§5) Toxicity was tested by standard MTT-assay (Mossman et al., 1983 J. Immunological Methods 65: 55-63). MTT is an indicator of metabolically active cells. Dependent on enzyme activity in mitochondria a colour reaction can be visualised, which can be measured by ELISA reader (540 nm). […]

[5] = Acute dermal toxicity test (OECD 402); format: in vivo; conditions: 3.2 mM in a topical formulation
Protocol: Compound 10 was tested at 3.2 mM in a topical formulation in a standard acute dermal toxicity test to determine if any clinical or histological toxicity for the compound could be detected.
The acute toxicity protocol was based on OECD Guidelines for the testing of chemicals/Section 4—Health Effects Test Number 402: Acute Dermal Toxicity.

[6] = test system: range of S. aureus strains including MSSA, healthcare-associated and community-associated MRSA; conditions: previously shown (Love et al. 2008); cited from earlier work
[7] = test system: normal human epidermal keratinocytes (NHEK); experiment: Toxicity against human skin cells, MTT-assay; format: cell-based; conditions: 5 min, 1 h, 4 h incubation, 0.01-10 μM, then 24 h in the dark
Protocol: NHEK were incubated with different concentrations of Compound 10 for 5 min, 1 h and 4 h (0 μM, 0.01 μM, 0.1 μM, 1.0 μM, 10 μM). Cells were then incubated for 24 h in the dark. Toxicity was tested by standard MTT-assay. Cell viability was normalised to one, which means, the values of control cells were normalised to one. Red dotted line: 5 min incubation; black dotted: 1 h incubation; blue dotted: 4 h incubation only; (n=3, mean±SD).
as §3, §4, §5

For `C[N+](C)(C)CCCOc1ccc(-c2c3nc(cc4ccc([nH]4)c(-c4ccc(OCCC[N+](C)(C)C)cc4)c4nc(cc5ccc2[nH]5)C=C4)C=C3)cc1.[Cl-].[Cl-]` [Compound 10, 5,15-bis-[4-(3-Trimethylammonio-propyloxy)-phenyl]-porphyrin dichloride], the “Cpd 10 MIC” value ([1]; strain E4 (clinical isolate)) was 0.5 µg/mL, the “Cpd 10 MIC” value ([1]; strain E10 (clinical isolate)) was 0.5 µg/mL and the “Cpd 10 MIC” value ([1]; strain E37 (clinical isolate)) was 0.5 µg/mL. For the same compound, the “Cpd 10 MIC” value ([2]; strain E5 (clinical isolate)) was 0.5 µg/mL, the “Cpd 10 MIC” value ([2]; strain E19 (clinical isolate)) was 0.5 µg/mL and the “Cpd 10 MIC” value ([2]; strain E44 (clinical isolate)) was 0.5 µg/mL. The MBC [3] was 0.382* μg/mL, the “Innate toxicity (cell viability, MTT)” value [4] was “does not demonstrate an innate toxicity” and the “Acute dermal toxicity (clinical and histological)” value [5] was “does not result in any acute toxic effect”. For the same compound, the MBC50 [6] was 1 µg/mL, the MIC50 [6] was 1 µg/mL and the “Innate toxicity (cell viability, MTT)” value [7] was “does not demonstrate an innate toxicity”.
